Results from PubChem BioAssay AID2060340 (Molecular Pharmacology Branch, DTP, NCI, 2025).
Values joined by “and” are separate entries in the source; they are usually repeats but may differ in a detail not shown here. Equal entries are not always repeated.

Test system: 349418-098-R-PDC spheroids, viability, % test/control
Test: Anticancer human tumor 349418-098-R-PDC patient-derived lung adenocarcinoma cell line growth inhibition [IpAb]
Settings: spheroids with HUVEC and MSC; for viability, T/C: stronger effect = lower value
Text: Combinatorial screen of targeted agents with ipatasertib and abemaciclib in multi-cell type tumor spheroids
A high-throughput screen of multi-cell type tumor spheroids was designed to identify active combinations of targeted small molecules and ipatasertib or abemaciclib. Complex spheroids include a stromal component modeled by human endothelial cells (HUVEC) and fibroblasts modeled by human mesenchymal stem cells (MSCs). The concentration ranges selected for each drug and investigational agent were based upon clinically achievable concentrations if the clinical Cmax of the agent was known.
Compounds. The drugs and investigational agents: ipatasertib (NSC767898), abemaciclib(NSC768073), selumetinib (NSC741078), trametinib (758246), adavosertib (NSC754352), everolimus (NSC733504), sapanisertib (NSC764658), vemurafenib (NSC761431), venetoclax (NSC766270), copanlisib (NSC809693), apelisib (NSC765974), palbociblib (NSC758247), vemurafenib (NSC761431), dabrafenib (NSC764134), ravoxertinib (NSC781343), BMS-387032 (NSC767048), sotorasib (NSC818433), talazoparib (NSC767125) and afursertib (NSC778305), were obtained from the National Cancer Institute (NCI) Developmental Therapeutics Program Chemical Repository. The FDA-approved anticancer drug set is available from the NCI Developmental Therapeutics Program. […] The stock solutions were prepared in dimethyl sulfoxide (DMSO, Sigma-Aldrich, St. Louis, MO, cat. D2650) at 800-fold the tested concentration and stored at -70 degrees C prior to their use. All drugs and investigational agents were tested over a range starting from a high concentration at or near the clinical Cmax and decreasing in half-log increments. If the clinical Cmax for an agent had not been determined, the highest concentration tested was 10 microM.
NCI60 Cell Culture. NCI60 cell lines were obtained from the NCI Developmental Therapeutics Program Tumor Repository. For each lot of cells, the Repository performed Applied Biosystems AmpFLSTR Identifiler testing with PCR amplification to confirm consistency with the published Identifier STR profile for each cell line. Cells were kept in continuous culture for no more than 20 passages. The optimal seeding densities for each of the cell lines at each time point assessed were determined prior to performing the concentration response studies. Briefly, the NCI60 human tumor lines were grown as monolayers in RPMI 1640 medium supplemented with 10% FBS and 2 mmol/L L-glutamine.
An additional 9 lines were from the NCI60 cell line panel including MDA-MB-231 breast carcinoma, MDA-MB-468 breast carcinoma, MCF7 breast carcinoma, Hs578T breast carcinoma, MALME-3M melanoma, SK-MEL-2 melanoma, SK-OV-3 ovarian carcinoma, DU-145 prostate carcinoma, PC-3 prostate carcinoma, all cell lines along with major genetic alterations are listed on Table 2. Pooled donor human umbilical vein endothelial cells (HUVEC, Lonza, cat. CC-2519) and human mesenchymal stem cells (hMSC, Lonza, cat. PT-2501) were purchased from Lonza (Walkersville, MD).
PDMR cell lines were grown in complete medium (DC medium): Dulbecco's modified Eagle's medium (DMEM)/F12 supplemented with 5% fetal bovine serum (FBS), 2 mM L-glutamine, 100 U/mL penicillin and 100 µg/ml streptomycin, 0.4 µg/ml hydrocortisone, 10 ng/ml epidermal growth factor (EGF) recombinant human protein, 24 µg/mL adenine, and 0.1 mg/mL primocin. During culture from frozen stock vials, PDMR cells were cultured in the same medium containing 10 µM Y-27632 (see Table 3). The PDCs were cultured in complete DMEM/F12 media without 10 microM Y-27632 dihydrochloride for at least two passages prior to the screen. The pooled donor HUVEC and hMSC were cultured in endothelial cell growth medium 2 (PromoCell, Heidelberg, Germany, cat. C-22011) and mesenchymal stem cell growth medium 2 (PromoCell, cat. C-28009), respectively. For all experiments, HUVEC and hMSC were used at passages </=5.
[…]

[1] = curve of first compound, second compound 0.1 µM
[2] = curve of first compound, second compound 0.316 µM
[3] = curve of first compound, second compound 1 µM
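Note: spheroids exposed to compounds for 7 days.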

## CC(=O)c1c(C)c2cnc(Nc3ccc(N4CCNCC4)cn3)nc2n(C2CCCC2)c1=O + CC(C)NCC(C(=O)N1CCN(c2ncnc3c2C(C)CC3O)CC1)c1ccc(Cl)cc1
[1]
  IC50: 8.74 nM
[2]
  IC50: < 0.949 nM
[3]
  IC50: < 0.949 nM
Curve of first compound, second compound 3.16 µM
  IC50: < 0.949 nM
Curve of first compound, second compound 10 µM
  IC50: < 0.949 nM
Second compound 0.1 µM, first compound 0.000949 µM
  viability, T/C: 76.3%
Second compound 0.1 µM, first compound 0.003 µM
  viability, T/C: 74.8%
Second compound 0.1 µM, first compound 0.00949 µM
  viability, T/C: 44%
Second compound 0.1 µM, first compound 0.03 µM
  viability, T/C: 29.3%
Second compound 0.1 µM, first compound 0.0949 µM
  viability, T/C: 14.4%
Second compound 0.1 µM, first compound 0.3 µM
  viability, T/C: 12.1%
Second compound 0.316 µM, first compound 0.000949 µM
  viability, T/C: 40.5%
Second compound 0.316 µM, first compound 0.003 µM
  viability, T/C: 43.2%
Second compound 0.316 µM, first compound 0.00949 µM
  viability, T/C: 23.8%
Second compound 0.316 µM, first compound 0.03 µM
  viability, T/C: 15.5%
Second compound 0.316 µM, first compound 0.0949 µM
  viability, T/C: 8.84%
Second compound 0.316 µM, first compound 0.3 µM
  viability, T/C: 8.96%
Second compound 1 µM, first compound 0.000949 µM
  viability, T/C: 19.5%
Second compound 1 µM, first compound 0.003 µM
  viability, T/C: 13.5%
Second compound 1 µM, first compound 0.00949 µM
  viability, T/C: 9.63%
Second compound 1 µM, first compound 0.03 µM
  viability, T/C: 7.98%
Second compound 1 µM, first compound 0.0949 µM
  viability, T/C: 7.69%
Second compound 1 µM, first compound 0.3 µM
  viability, T/C: 7.53%
Second compound 3.16 µM, first compound 0.000949 µM
  viability, T/C: 11.4%
Second compound 3.16 µM, first compound 0.003 µM
  viability, T/C: 9.48%
Second compound 3.16 µM, first compound 0.00949 µM
  viability, T/C: 8.85%
Second compound 3.16 µM, first compound 0.03 µM
  viability, T/C: 6.09%
Second compound 3.16 µM, first compound 0.0949 µM
  viability, T/C: 6.21%
Second compound 3.16 µM, first compound 0.3 µM
  viability, T/C: 7.07%
Second compound 10 µM, first compound 0.000949 µM
  viability, T/C: 7.89%
Second compound 10 µM, first compound 0.003 µM
  viability, T/C: 6.96%
Second compound 10 µM, first compound 0.00949 µM
  viability, T/C: 5.33%
Second compound 10 µM, first compound 0.03 µM
  viability, T/C: 5.56%
Second compound 10 µM, first compound 0.0949 µM
  viability, T/C: 5.75%
Second compound 10 µM, first compound 0.3 µM
  viability, T/C: 5.61%

## CCCS(=O)(=O)Nc1ccc(F)c(C(=O)c2c[nH]c3ncc(-c4ccc(Cl)cc4)cc23)c1F
Compound 0.0316 µM
  viability, T/C: 69.3% and 61.6%
Compound 0.1 µM
  viability, T/C: 52% and 49.9%
Compound 0.316 µM
  viability, T/C: 51.7% and 55.5%
Compound 1 µM
  viability, T/C: 49.4% and 45.2%
Compound 3.16 µM
  viability, T/C: 50.4% and 46.2%
Compound 10 µM
  viability, T/C: 22.7% and 19.6%
Curve of compound
  IC50: 1850 nM and 1090 nM

## C=CCn1c(=O)c2cnc(Nc3ccc(N4CCN(C)CC4)cc3)nc2n1-c1cccc(C(C)(C)O)n1 + CCN1CCN(Cc2ccc(Nc3ncc(F)c(-c4cc(F)c5nc(C)n(C(C)C)c5c4)n3)nc2)CC1
Curve of first compound, second compound 0.01 µM
  IC50: 164 nM
Curve of first compound, second compound 0.0316 µM
  IC50: 101 nM
[1]
  IC50: < 31.6 nM
[2]
  IC50: < 31.6 nM
[3]
  IC50: < 31.6 nM
Second compound 0.01 µM, first compound 0.0316 µM
  viability, T/C: 78.5%
Second compound 0.01 µM, first compound 0.1 µM
  viability, T/C: 76.4%
Second compound 0.01 µM, first compound 0.316 µM
  viability, T/C: 15.1%
Second compound 0.01 µM, first compound 1 µM
  viability, T/C: 5.22%
Second compound 0.01 µM, first compound 3.16 µM
  viability, T/C: 4.65%
Second compound 0.01 µM, first compound 10 µM
  viability, T/C: 5.36%
Second compound 0.0316 µM, first compound 0.0316 µM
  viability, T/C: 65.1%
Second compound 0.0316 µM, first compound 0.1 µM
  viability, T/C: 50.2%
Second compound 0.0316 µM, first compound 0.316 µM
  viability, T/C: 13.4%
Second compound 0.0316 µM, first compound 1 µM
  viability, T/C: 6.17%
Second compound 0.0316 µM, first compound 3.16 µM
  viability, T/C: 4.95%
Second compound 0.0316 µM, first compound 10 µM
  viability, T/C: 4.75%
Second compound 0.1 µM, first compound 0.0316 µM
  viability, T/C: 38.4%
Second compound 0.1 µM, first compound 0.1 µM
  viability, T/C: 30%
Second compound 0.1 µM, first compound 0.316 µM
  viability, T/C: 13.3%
Second compound 0.1 µM, first compound 1 µM
  viability, T/C: 7%
Second compound 0.1 µM, first compound 3.16 µM
  viability, T/C: 6.21%
Second compound 0.1 µM, first compound 10 µM
  viability, T/C: 5.25%
Second compound 0.316 µM, first compound 0.0316 µM
  viability, T/C: 23.6%
Second compound 0.316 µM, first compound 0.1 µM
  viability, T/C: 20.2%
Second compound 0.316 µM, first compound 0.316 µM
  viability, T/C: 14.4%
Second compound 0.316 µM, first compound 1 µM
  viability, T/C: 10%
Second compound 0.316 µM, first compound 3.16 µM
  viability, T/C: 7.67%
Second compound 0.316 µM, first compound 10 µM
  viability, T/C: 6.46%
Second compound 1 µM, first compound 0.0316 µM
  viability, T/C: 17.9%
Second compound 1 µM, first compound 0.1 µM
  viability, T/C: 15.5%
Second compound 1 µM, first compound 0.316 µM
  viability, T/C: 11.4%
Second compound 1 µM, first compound 1 µM
  viability, T/C: 9.92%
Second compound 1 µM, first compound 3.16 µM
  viability, T/C: 6.96%
Second compound 1 µM, first compound 10 µM
  viability, T/C: 5.12%
